Consider 14 molecules from PubChem BioAssay AID328 (DTP/NCI, 2004).

The subject of the experiment is BDF1 mice, P388 leukemia ip, median survival T/C. Description: NCI In Vivo Anticancer Drug Screen. Data for tumor model P388 Leukemia (intraperitoneal) in B6D2F1 (BDF1) mice. Particulars: endpoint: median survival time, higher = longer survival. Summed up:
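Vehicle-dosed animals serve as the reference; survival of compound-dosed, tumour-implanted mice is divided by it.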

The mark [1] stands for this setting: dose: 25.0 mg/kg/injection, schedule: Q04DX003 (ip), vehicle: Klucel (hydroxypropylcellulose) (HPC).
Where [2] appears, read: dose: 50.0 mg/kg/injection, schedule: Q04DX003 (ip), vehicle: Klucel (hydroxypropylcellulose) (HPC).
Setting [3] is: dose: 100.0 mg/kg/injection, schedule: Q01DX009 (ip), vehicle: saline.
Setting [4] is: dose: 100.0 mg/kg/injection, schedule: Q04DX003 (ip), vehicle: saline.
Where [5] appears, read: dose: 200.0 mg/kg/injection, schedule: Q01DX009 (ip), vehicle: saline.
[6] abbreviates: dose: 200.0 mg/kg/injection, schedule: Q04DX003 (ip), vehicle: saline.
The mark [7] stands for this setting: dose: 400.0 mg/kg/injection, schedule: Q04DX003 (ip), vehicle: saline.
Setting [8] is: dose: 100.0 mg/kg/injection, schedule: Q04DX003 (ip), vehicle: saline with Tween-80.
The mark [9] stands for this setting: dose: 200.0 mg/kg/injection, schedule: Q04DX003 (ip), vehicle: saline with Tween-80.
The mark [10] stands for this setting: dose: 400.0 mg/kg/injection, schedule: Q04DX003 (ip), vehicle: saline with Tween-80.
[11] abbreviates: dose: 100.0 mg/kg/injection, schedule: Q01DX009 (ip), vehicle: saline with Tween-80.
The mark [12] stands for this setting: dose: 200.0 mg/kg/injection, schedule: Q01DX009 (ip), vehicle: saline with Tween-80.
[13] abbreviates: dose: 400.0 mg/kg/injection, schedule: Q01DX009 (ip), vehicle: saline with Tween-80.
The mark [14] stands for this setting: dose: 50.0 mg/kg/injection, schedule: Q01DX009 (ip), vehicle: Klucel (hydroxypropylcellulose) (HPC).
Where [15] appears, read: dose: 25.0 mg/kg/injection, schedule: Q01DX009 (ip), vehicle: saline.
[16] abbreviates: dose: 50.0 mg/kg/injection, schedule: Q04DX003 (ip), vehicle: saline.

Molecules are shown by their SMILES. Values joined by “and” are separate entries in the source; they are usually repeats but may differ in a detail not shown here. Identical values can stand only once. Inconclusive results and toxic doses are left out.

In the case of `O=C(/C=C/c1ccc2c(c1)OCO2)c1ccc([N+](=O)[O-])cc1`, the T/C is 100 % of control (dose: 6.25 mg/kg/injection, schedule: Q04DX003 (ip), vehicle: Klucel (hydroxypropylcellulose) (HPC)); 100 % of control (dose: 12.5 mg/kg/injection, schedule: Q04DX003 (ip), vehicle: Klucel (hydroxypropylcellulose) (HPC)); 100 % of control under setting [1]; 86 % of control under setting [2]; 105 % of control (dose: 100.0 mg/kg/injection, schedule: Q01DX001 (ip), vehicle: Klucel (hydroxypropylcellulose) (HPC)); 90 % of control (dose: 200.0 mg/kg/injection, schedule: Q01DX001 (ip), vehicle: Klucel (hydroxypropylcellulose) (HPC)). Besides, for the setting “dose: 400.0 mg/kg/injection, schedule: Q01DX001 (ip), vehicle: Klucel (hydroxypropylcellulose) (HPC)”, the T/C is 92 % of control.
On to `CC(=O)C1=C(O)C2(O)C(=O)c3c(c(C)c4ccc(C)c(O)c4c3O)CC2C(N)C1=O` (stereo unspecified), for which the T/C (dose: 1.56 mg/kg/injection, schedule: Q01DX009 (ip), vehicle: saline with Tween-80) is 109 % of control; the T/C (dose: 3.13 mg/kg/injection, schedule: Q01DX009 (ip), vehicle: saline with Tween-80) is 104 % of control; the T/C (dose: 6.25 mg/kg/injection, schedule: Q01DX009 (ip), vehicle: saline with Tween-80) is 118 % of control.
For `CCOc1ccc(Br)cc1/C=C/C(C)=O`, the T/C under setting [3] was 109 % of control; the T/C under setting [4] is 112 % of control; the T/C under setting [5] was 95 % of control; the T/C under setting [6] was 95 % of control; the T/C (dose: 400.0 mg/kg/injection, schedule: Q01DX009 (ip), vehicle: saline) was 104 % of control; the T/C under setting [7] is 100 % of control.
Take `CCC1OC(=O)C(C)C(OC2CC(C)(O)C(O)C(C)O2)C(C)C(O)C(C)(O)CC(C)C(=O)C(C)C(O)C1C` (stereo unspecified): the T/C by setting is: under setting [3], 100 % of control; under setting [5], 94 % of control.
`Cc1ccc(S(=O)(=O)N(C)c2ccc(I)c(Cl)c2Cl)cc1`: the T/C was 100 % of control (dose: 100.0 mg/kg/injection, schedule: Q04DX003 (ip), vehicle: Klucel (hydroxypropylcellulose) (HPC)); 90 % of control (dose: 200.0 mg/kg/injection, schedule: Q04DX003 (ip), vehicle: Klucel (hydroxypropylcellulose) (HPC)); 90 % of control (dose: 400.0 mg/kg/injection, schedule: Q04DX003 (ip), vehicle: Klucel (hydroxypropylcellulose) (HPC)).
With `Cc1ccc(C(=O)C2C(c3ccccc3)N2Cc2ccccc2)cc1` (stereo unspecified), the T/C reads like this: under setting [8], 94 % of control and 99 % of control; under setting [9], 109 % of control and 92 % of control; under setting [10], 99 % of control and 87 % of control.
Take `Cc1c(C)c([N+](=O)[O-])c(Br)c(C)c1[N+](=O)[O-]`: the T/C is 95 % of control under setting [11]; 104 % of control under setting [8]; 109 % of control (dose: 132.0 mg/kg/injection, schedule: Q04DX003 (ip), vehicle: saline with Tween-80); 90 % of control under setting [12]; 118 % of control under setting [9]; 100 % of control (dose: 300.0 mg/kg/injection, schedule: Q04DX003 (ip), vehicle: saline with Tween-80). The T/C is 95 % of control under setting [13] and 122 % of control under setting [10].
With `CCCCCCC(=O)/C=C/c1ccc(Cl)c(Cl)c1`, the T/C by setting is: (dose: 75.0 mg/kg/injection, schedule: Q01DX009 (ip), vehicle: saline with Tween-80) 106 % of control; (dose: 150.0 mg/kg/injection, schedule: Q01DX009 (ip), vehicle: saline with Tween-80) 98 % of control; (dose: 300.0 mg/kg/injection, schedule: Q01DX009 (ip), vehicle: saline with Tween-80) 93 % of control.
`CS(=O)(=O)OCCC(=O)NCNC(=O)CCOS(C)(=O)=O`: the T/C (dose: 9.0 mg/kg/injection, schedule: Q04DX003 (ip), vehicle: Klucel (hydroxypropylcellulose) (HPC)) is 100 % of control; the T/C (dose: 12.0 mg/kg/injection, schedule: Q04DX003 (ip), vehicle: Klucel (hydroxypropylcellulose) (HPC)) is 113 % of control; the T/C (dose: 12.5 mg/kg/injection, schedule: Q01DX009 (ip), vehicle: Klucel (hydroxypropylcellulose) (HPC)) is 150 % of control; the T/C (dose: 13.0 mg/kg/injection, schedule: Q04DX003 (ip), vehicle: Klucel (hydroxypropylcellulose) (HPC)) was 113 % of control; the T/C (dose: 22.0 mg/kg/injection, schedule: Q01DX009 (ip), vehicle: Klucel (hydroxypropylcellulose) (HPC)) is 156 % of control; the T/C (dose: 25.0 mg/kg/injection, schedule: Q01DX009 (ip), vehicle: Klucel (hydroxypropylcellulose) (HPC)) was 172 % of control. The T/C under setting [1] was 163 % of control; the T/C (dose: 33.0 mg/kg/injection, schedule: Q01DX009 (ip), vehicle: Klucel (hydroxypropylcellulose) (HPC)) was 176 % of control; the T/C (dose: 33.0 mg/kg/injection, schedule: Q04DX003 (ip), vehicle: Klucel (hydroxypropylcellulose) (HPC)) was 155 % of control and 171 % of control; the T/C under setting [14] was 168 % of control and 218 % of control; the T/C under setting [2] is 181 % of control and 185 % of control and 195 % of control; the T/C (dose: 75.0 mg/kg/injection, schedule: Q01DX009 (ip), vehicle: Klucel (hydroxypropylcellulose) (HPC)) is 124 % of control. Also, under “dose: 75.0 mg/kg/injection, schedule: Q04DX003 (ip), vehicle: Klucel (hydroxypropylcellulose) (HPC)”, the T/C is 190 % of control and 214 % of control.
Take `CC#CCOCC1CN(C)C(=O)O1` (stereo unspecified): the T/C is 95 % of control under setting [15]; 100 % of control (dose: 50.0 mg/kg/injection, schedule: Q01DX009 (ip), vehicle: saline); 100 % of control under setting [16]; 109 % of control under setting [3]; 95 % of control under setting [5]; 91 % of control under setting [6]. The T/C under setting [7] is 87 % of control.
Turning to `CC(C)(C)C1C2N1C1(c3ccccc3)OC2(c2ccccc2)c2ccccc21` (stereo unspecified), the T/C is 106 % of control under setting [14]; 100 % of control (dose: 100.0 mg/kg/injection, schedule: Q01DX009 (ip), vehicle: Klucel (hydroxypropylcellulose) (HPC)); 104 % of control (dose: 200.0 mg/kg/injection, schedule: Q01DX009 (ip), vehicle: Klucel (hydroxypropylcellulose) (HPC)).
In the case of `CC(OC(=O)Nc1ccccc1)C(=O)O` (stereo unspecified), the T/C is, setting by setting: under setting [11], 88 % of control; under setting [12], 92 % of control; under setting [13], 103 % of control.
On to `C[n+]1ccc(/C=N/O)cc1`, for which the T/C is 105 % of control (dose: 25.0 mg/kg/injection, schedule: Q04DX003 (ip), vehicle: saline); 103 % of control under setting [16]; 98 % of control under setting [4]; 89 % of control and 100 % of control under setting [6]; 86 % of control under setting [7].
Regarding `NCCO/C=C/C(N)C(=O)O` (stereo unspecified), the T/C reads like this: (dose: 4.0 mg/kg/injection, schedule: Q01DX009 (ip), vehicle: saline) 99 % of control; (dose: 6.0 mg/kg/injection, schedule: Q01DX009 (ip), vehicle: saline) 100 % of control; (dose: 9.0 mg/kg/injection, schedule: Q01DX009 (ip), vehicle: saline) 93 % of control; (dose: 12.5 mg/kg/injection, schedule: Q01DX009 (ip), vehicle: saline) 104 % of control; under setting [15], 107 % of control.
